# Laboratory results reported in paper PMC9861623, “New Ferulic Acid and Amino Acid Derivatives with Increased Cosmeceutical and Pharmaceutical Potential” (Pharmaceutics, 2022).
# “And” between values parts separate entries of the source, which are not always exact repeats. Identical values can stand only once. Like-named read-outs stand apart in the source and are kept apart here.
# How the values were obtained:
# [1] = n-octanol/water partition coefficient by shake flask method; type: physicochemical; details: from log PO/W
# Protocol: The n-octanol/water partition coefficient (log PO/W) was determined for ferulic acid and its derivatives by shake flask method. n-Octanol saturated with water and water saturated with n-octanol were prepared at 25 °C, 24 h prior to their use in the experiments. Then, a sample of 10 mg of compound was weighed with the accuracy of 0.01 mg in a 16 cm^3 screwed vial and dissolved in 5 cm^3 of n-octanol. Next, 5 cm^3 of water was added to the vial. The resulting two-phase mixture was kept in water bath shaker at 25 °C for 2 h and was strongly shaken to reach the partition equilibrium of the compound between the phases. Then the mixture was left unshaken for 30 min and 1.0 cm^3 of water phase was carefully taken out to centrifuge tube. The sample was next centrifuged for 10 min at 7500 rpm at 25 °C to ensure the most precise phase separation. The concentration of compound in water phase was then determined using HPLC method. The partition coefficient, log PO/W was calculated according to the formula: logPO/W=logC0V0−CWVW/CWVW where: C0—initial concentration of the compound in n-octanol, calculated based on the weighed mass of compound, mg·cm^−^3; V0—volume of n-octanol, cm^3; CW—concentration of the compound in water after partition equilibrium, mg·cm^−^3; VW—volume of water, cm^3.
# [2] = DPPH antioxidant activity of acceptor fluid after 24 h permeation; design: species or system pig; details: after 24 h penetration
# Protocol: To determine the antioxidant capacity of ferulic acid and its derivatives the DPPH method was used. The analyses were performed using the Hitachi UV-Vis Spectrophotometer U-5100 at the wavelength λ = 517 nm. Trolox (6-hydroxy-2,5,7,8-tetramethylchroman-2-carboxylic acid) was used as a reference substance. The antioxidant activity was expressed as %RSA and mmol Trolox dm^−3. […]. Blank samples without antioxidant were prepared in the same way. The tubes were wrapped in aluminum foil and were sealed with a stopper and then incubated for 10 min at room temperature. After this time, spectrophotometric measurements were carried out in triplicate. For determination of antioxidant activity of the acceptor fluid after 24 h of permeation and solutions obtained by extraction of the skin obtained after penetration study, 0.15 mL samples of each solutions were separately added to 2.85 mL of DPPH solution and spectrophotometric measurements were performed. The antioxidant activity was expressed as mmol Trolox·dm^−3.
# The permeation experiments were performed using Franz diffusion cells (Phoenix DB-6, ABL&E-JASCO, Wien, Austria). The diffusion was 1 cm^2. The volume of the acceptor chamber was 8 mL. This chamber was filled with PBS solution (pH 7.4). During experiment, a constant temperature of 37.0 ± 0.5 °C was maintained in each diffusion unit. The acceptor chamber content was stirred with a magnetic stirring bar at the same speed for all cells. The prepared pig skin was mounted on each donor chamber. As previously mentioned, only undamaged skin pieces with an even thickness were chosen for experiments. Thereafter, the hydrogel or emulsion vehicle/preparation in 1 g portion was put on the skin in donor cells. For comparison, 1 mL ethanolic solution containing either FA or its derivatives was applied to another donor chamber. The amount of the FA and its derivatives applied on the skin expressed as the mass of ferulic acid was 0.01 g and was the same for each carrier. The penetration experiments were carried out for 24 h. The samples were collected after 1 h, 2 h, 3 h, 4 h, 5 h, 6 h, 8 h, and 24 h. Aliquots of the acceptor fluid (0.5 mL) were withdrawn and to each acceptor chamber the same volume of fresh PBS solution was added. The FA and its derivatives’ concentrations in the acceptor fluid were measured by HPLC method (Section 2.6.2). The cumulative mass (µg·cm^−2) and penetration rate (µg·cm^−2·h^−1) were calculated. The acceptor fluid collected after 24 h of permeation was also measured for antioxidant activity and total polyphenol content (as described in Section 2.5.1 and Section 2.5.2).
# [3] = Thermogravimetric (TG) analysis, thermal stability; type: physicochemical
# Protocol: Samples of 2–5 mg, loaded in aluminium crucibles, were heated from 30 °C to 600 °C at the heating rate of 10 °C·min^−1, in the air atmosphere (25 mL·min^−1) with nitrogen flow (10 mL·min^−1) as the purge gas.
# L929 cells [4] = test system: L929 cells; design: method as in PMID 24344870; details: L929, 72 h, cited from earlier work
# L929 cells [5] = test system: L929 cells; design: method as in PMID 32485864; details: L929, 24 h, highest tested concentration of 2.5–40 mg L^−1, Trypan blue; cited from earlier work
# L929 cells [6] = test system: L929 cells; design: method as in PMID 32485864; details: L929, 24 h, 2.5–40 mg L^−1, MTT assay; cited from earlier work
# cancer cells (HepG2) = test system: cancer cells (HepG2); design: method as in PMID 29077251; details: HepG2, 500 μg mL^−1; cited from earlier work
# 3T3-L1 cells = test system: 3T3-L1 cells; design: method as in PMID 29077251; details: 3T3-L1, 500 μg mL^−1; cited from earlier work
# fibroblasts = test system: fibroblasts; design: method as in doi:10.3390/pr9071204; details: fibroblasts after UVB irradiation, increased from 9.92%; cited from earlier work
# diabetic rats = test system: diabetic rats; design: method as in doi:10.1016/j.jddst.2022.103621; details: 50 mg kg^−1 body wt., orally for 8 weeks; cited from earlier work
# NRK-52E cells = test system: NRK-52E cells; design: method as in doi:10.1016/j.jddst.2022.103621; details: 75 μM, high glucose environment; cited from earlier work
# [7] = test system: Murine fibroblasts (L929); assay: Cytotoxicity, PrestoBlue resazurin-based cell viability assay; details: 0.03125–2.0 mM (any dosage), 24 h
# Protocol: The cell biocompatibility was evaluated using a PrestoBlue HS Cell Viability Reagent (Thermo Fisher Scientific, MA USA) based on the reduction of the resazurin to highly fluorescent resorufin, of which the amount is directly correlated to the number of living cells. […] The cells without tested compounds were used as control. The interaction of tested compounds without cells and Prestoblue Reagent (blank wells) was excluded. After 24 h of treatment, optical microscopy imaging of L929 cells was performed using Smart Fluorescent Cell Analyzer Microscope JuLi (Seoul, Korea). Next, the PrestoBlue reagent (10 μL) was added to each well and incubated for 30 min. The fluorescence was measured using a spectrophotometric microplate reader (Infinite 200 Pro, Tecan, Männedorf, Switzerland) at ex/em: 560/594 nm. The readings were acquired from at least three independent experiments (each conducted in triplicate) and normalized to the control (100% viability).
smiles,measurement,setting,value
COc1cc(/C=C/C(=O)O)ccc1O [Ferulic acid],Share of compound partitioned to n-octanol,[1],~98%
same,DPPH antioxidant activity of the acceptor fluid,[2]; emulsion,0.057 ± 0.004 a mmol Trolox dm^−3
same,DPPH antioxidant activity of the acceptor fluid,"[2]; ethanol solution, listed as FA",0.079 ± 0.010 mmol Trolox dm^−3 and 0.079 ± 0.010 a mmol Trolox dm^−3
same,DPPH antioxidant activity of the acceptor fluid,[2]; hydrogel,0.067 ± 0.004 a mmol Trolox dm^−3
same,"Td onset, the onset of decomposition","[3]; TG, air atmosphere, 10 °C·min^−1",217.0 °C
same,"Td max, temperature of the fastest mass loss of the sample","[3]; TG/DTG, air atmosphere, 10 °C·min^−1",251.2 °C
same,Temperature range of decomposition (main weight loss),[3]; according to the DTG curve,175–300 °C
same,cell viability,L929 cells [4]; 500 μg mL^−1 (2.57 mM),67%
same,cell viability,L929 cells [4]; 1000 μg mL^−1 (5.15 mM),28%
same,cell viability,L929 cells [5],80%
same,effect on cell viability/proliferation,L929 cells [6],no effect on cell viability/proliferation
same,viability of cancer cells,cancer cells (HepG2),significantly decreased the viability
same,toxicity on normal cells,3T3-L1 cells,did not cause any toxicity
same,percentage of viable cells,fibroblasts,46.02%
same,effect in diabetic rats,diabetic rats,"markedly ameliorated kidney injury, renal cell apoptosis, inflammation, and defective autophagy in the kidneys"
same,effect in cultured NRK-52E cells,NRK-52E cells,"countered excessive ROS generation, induced autophagy, and inhibited apoptotic death of cells"
same,Difference in L929 viability between control and treated cells,[7],No statistically significant differences in viability
